Data reported in patent publication US6972296B2, “Carboxylic acid derivatives that inhibit the binding of integrins to their receptors” (Encysive Pharmaceuticals Inc., priority 1999, dated 2005).
Each block holds one compound with its values, some of them ahead of it.

Biological target: T1, α4β1 integrin (Homo sapiens, UniProt P05556+P13612)
T1 construct: endogenous in cells; host or cells: Ramos cells
Assay: Adhesion of calcein-labeled Ramos cells to CS1 (fibronectin) peptide conjugated ovalbumin
Type: cell-based
Details: Ramos cell adhesion to CS1 conjugated ovalbumin
Outline: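 Calcein AM-labelled Ramos cells (2.5×10^5/well) with compound, up to 100 μM, added to plates coated with CS1 peptide–ovalbumin (0.5 μg/ml) and blocked with 3% BSA. Binding buffer TBS pH 7.5 with 1 mM each MgCl2, CaCl2, MnCl2; 30 min, 37 °C. After washes, adherent cells lysed and read fluorometrically; […].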

[1] = Table 7, dose required to give 50% inhibition
[2] = Table 5, dose required to give 50% inhibition

T1 sequence (P13612 34-1032): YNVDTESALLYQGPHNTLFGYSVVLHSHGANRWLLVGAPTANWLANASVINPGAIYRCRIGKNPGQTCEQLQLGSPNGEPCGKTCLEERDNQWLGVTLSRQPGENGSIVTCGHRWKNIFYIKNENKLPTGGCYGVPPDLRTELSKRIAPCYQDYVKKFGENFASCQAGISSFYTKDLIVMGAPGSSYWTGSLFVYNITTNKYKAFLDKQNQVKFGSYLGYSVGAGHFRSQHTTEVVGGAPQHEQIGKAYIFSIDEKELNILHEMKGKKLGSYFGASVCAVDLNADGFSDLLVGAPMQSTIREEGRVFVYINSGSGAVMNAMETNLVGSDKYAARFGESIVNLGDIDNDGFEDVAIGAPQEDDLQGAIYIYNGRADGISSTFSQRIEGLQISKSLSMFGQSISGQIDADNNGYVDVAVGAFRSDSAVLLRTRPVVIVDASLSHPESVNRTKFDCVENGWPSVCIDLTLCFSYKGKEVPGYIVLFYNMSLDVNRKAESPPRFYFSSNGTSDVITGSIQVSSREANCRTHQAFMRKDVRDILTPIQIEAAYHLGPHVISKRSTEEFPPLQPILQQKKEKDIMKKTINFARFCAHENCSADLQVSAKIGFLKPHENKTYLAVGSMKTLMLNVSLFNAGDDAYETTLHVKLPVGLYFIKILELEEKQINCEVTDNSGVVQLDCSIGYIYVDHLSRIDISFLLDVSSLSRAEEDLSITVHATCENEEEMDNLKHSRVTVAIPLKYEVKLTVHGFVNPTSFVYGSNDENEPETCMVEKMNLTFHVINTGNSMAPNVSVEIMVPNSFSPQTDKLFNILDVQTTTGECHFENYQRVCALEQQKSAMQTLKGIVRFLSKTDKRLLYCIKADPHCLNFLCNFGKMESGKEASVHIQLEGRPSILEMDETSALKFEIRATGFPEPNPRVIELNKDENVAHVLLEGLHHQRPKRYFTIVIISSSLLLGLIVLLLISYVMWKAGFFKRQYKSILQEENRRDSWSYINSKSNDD
T1 sequence (P05556 21-798): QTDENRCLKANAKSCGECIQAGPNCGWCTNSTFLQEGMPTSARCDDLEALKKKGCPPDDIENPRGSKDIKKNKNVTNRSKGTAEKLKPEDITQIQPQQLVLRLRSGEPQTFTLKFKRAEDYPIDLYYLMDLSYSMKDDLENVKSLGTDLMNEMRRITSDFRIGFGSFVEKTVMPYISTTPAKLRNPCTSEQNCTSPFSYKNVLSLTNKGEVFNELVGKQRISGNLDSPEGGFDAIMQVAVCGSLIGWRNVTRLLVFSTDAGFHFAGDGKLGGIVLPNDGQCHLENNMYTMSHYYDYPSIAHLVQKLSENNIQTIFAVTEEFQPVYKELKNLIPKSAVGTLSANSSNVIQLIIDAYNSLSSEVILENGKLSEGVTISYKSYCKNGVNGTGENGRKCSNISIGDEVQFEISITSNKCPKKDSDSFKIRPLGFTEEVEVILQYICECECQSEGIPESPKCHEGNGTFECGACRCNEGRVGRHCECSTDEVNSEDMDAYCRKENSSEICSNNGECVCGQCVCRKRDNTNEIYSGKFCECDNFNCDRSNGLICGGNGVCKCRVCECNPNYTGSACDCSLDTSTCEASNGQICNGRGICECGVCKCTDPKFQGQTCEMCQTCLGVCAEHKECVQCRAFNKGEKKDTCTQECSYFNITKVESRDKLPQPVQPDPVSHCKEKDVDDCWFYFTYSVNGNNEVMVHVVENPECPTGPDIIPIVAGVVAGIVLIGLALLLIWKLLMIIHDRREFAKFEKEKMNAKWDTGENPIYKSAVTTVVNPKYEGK

- IC50 [1]: 3 nM
SMILES: CCOc1cccc(Cl)c1Cn1cc(C)c(O)c(NC(=O)N[C@@H](CC(=O)O)c2cccc(C(F)(F)F)c2)c1=O

- IC50 (Table 6, 30 minutes at 37° C.): 6 nM
SMILES: COc1cc([C@H](CC(=O)O)NC(=O)Nc2c(O)c(C)cn(Cc3c(Cl)cccc3OC)c2=O)ccc1C

- IC50 [1]: 2 nM
SMILES: CCOc1cccc(Cl)c1Cn1c2c(c(O)c(NC(=O)N[C@@H](CC(=O)O)c3cccc(OC4CC4)c3)c1=O)CCC2 [(3S)-3-[({[1-(2-chloro-6-ethoxybenzyl)-4-hydroxy-2-oxo-2,5,6,7-tetrahydro-1H-cyclopenta[b]pyridin-3-yl]amino}carbonyl)amino]-3-[3-(cyclopropyloxy)phenyl]propanoic acid]

- IC50 (Table 3, 30 minutes at 37° C.): 15 nM
SMILES: Cc1cc(C)cc([C@H](CC(=O)O)NC(=O)Nc2c(O)ccn(Cc3ccccc3Cl)c2=O)c1 [(3S)-3-{[({1-[(2-chlorophenyl)methyl]-4-hydroxy-2-oxo-1,2-dihydro-3-pyridinyl}amino)carbonyl]amino}-3-(3,5-dimethylphenyl)propanoic acid]

- IC50 (Table 6, 30 minutes at 37° C.): 33 nM
SMILES: COc1ccc(C(C)=O)cc1Cn1ccc(O)c(NC(=O)N[C@@H](CC(=O)O)c2ccc(C)cc2)c1=O

- IC50 (Table 3, 30 minutes at 37° C.): 40 nM
- IC50 (Table 4, 30 minutes at 37° C.): 40 nM
SMILES: O=C(O)CC(NC(=O)Nc1c(O)ccn(Cc2ccccc2Cl)c1=O)c1ccc(Cl)c(Cl)c1 (stereo not shown)

- IC50 (Table 6, 30 minutes at 37° C.): 15 nM
SMILES: Cc1cn(Cc2ccccc2Cl)c(=O)c(NC(=O)N[C@@H](CC(=O)O)c2cccc(OC3CCCC3)c2)c1O

- IC50 [1]: 4 nM
SMILES: CCOc1cccc(Cl)c1Cn1c(C)c(C)c(O)c(NC(=O)N[C@@H](CC(=O)O)c2ccccc2)c1=O

- IC50 (Table 2, 30 minutes at 37° C.): 2000 nM
SMILES: O=C(O)C[C@H](NC(=O)N[C@@H]1CCCN(Cc2cccs2)C1=O)c1ccc2c(c1)OCO2

- IC50 [1]: 11 nM
SMILES: COc1c(C)cc([C@H](CC(=O)O)NC(=O)Nc2c(O)c3c(n(Cc4ccccc4Cl)c2=O)CCC3)cc1C

- IC50 [2]: 50 nM
SMILES: O=C(O)CC(NC(=O)Nc1c(O)ccn(Cc2ccccc2Cl)c1=O)c1ccco1 (stereo not shown)

- IC50 [1]: 13 nM
SMILES: CCOc1ncc([C@H](CC(=O)O)NC(=O)Nc2c(O)c(C)cn(Cc3ccccc3Cl)c2=O)c(OCC)n1

- IC50 [1]: > 10000 nM
SMILES: Cc1cn(Cc2ccccc2Cl)c(=O)c(NC(=O)N[C@H](c2ccccc2)c2nnn[nH]2)c1O

- IC50 [2]: 15 nM
SMILES: CSc1ccc(Cl)c(Cn2ccc(O)c(NC(=O)N[C@@H](CC(=O)O)c3ccc(C)cc3)c2=O)c1

- IC50 [1]: 38 nM
SMILES: CC(C)Oc1cc([C@H](CC(=O)O)NC(=O)Nc2c(O)c3c(n(Cc4ccccc4Cl)c2=O)CCC3)ccc1Cl [(3S)-3-[({[1-(2-chlorobenzyl)-4-hydroxy-2-oxo-2,5,6,7-tetrahydro-1H-cyclopenta[b]pyridin-3-yl]amino}carbonyl)amino]-3-(4-chloro-3-isopropoxyphenyl)propanoic acid]

- IC50 [2]: 20 nM
SMILES: Cc1ccc([C@H](CC(=O)O)NC(=O)Nc2c(O)ccn(Cc3ccccc3C)c2=O)cc1

- IC50 [1]: 8 nM
SMILES: CCOc1cccc(Cl)c1Cn1cc(C)c(O)c(NC(=O)NC(CC(=O)O)c2ccc(S(C)(=O)=O)cc2)c1=O (stereo not shown)

- IC50 [2]: 15 nM
SMILES: CCOc1cccc([C@H](CC(=O)O)NC(=O)Nc2c(O)c(C)c(C)n(Cc3c(C)cccc3Cl)c2=O)c1

- IC50 [1]: 17 nM
SMILES: CC(C)c1ccc([C@H](CC(=O)O)NC(=O)Nc2c(O)c3c(n(Cc4ccccc4Cl)c2=O)CCC3)cc1

- IC50 [2]: 2000 nM
SMILES: Cc1ccc([C@H](CC(=O)O)NC(=O)Nc2cccn(Cc3ccc(F)cc3)c2=O)cc1

- IC50 (Table 6, 30 minutes at 37° C.): 130 nM
SMILES: Cc1cn(Cc2ccccc2Cl)c(=O)c(NC(=O)NC(CC(=O)O)c2ccc(-c3ccccc3)cc2)c1O (stereo not shown)

- IC50 (Table 6, 30 minutes at 37° C.): 6 nM
SMILES: CCOc1ccc([C@H](CC(=O)O)NC(=O)Nc2c(O)c(C3CC3)cn(Cc3ccccc3Cl)c2=O)cc1OCC

- IC50 (Table 6, 30 minutes at 37° C.): 2500 nM
SMILES: O=C(O)C[C@@H](Cc1cccc2ccccc12)NC(=O)Nc1c(O)ccn(Cc2ccccc2Cl)c1=O

- IC50 [1]: 1500 nM
SMILES: Cc1ccc([C@@H](NC(=O)Nc2c(O)c(C)cn(Cc3ccccc3Cl)c2=O)[C@H](C)C(=O)O)cc1

- IC50 [1]: 12 nM
SMILES: CCCOc1cccc([C@H](CC(=O)O)NC(=O)Nc2c(O)c3c(n(Cc4c(C)cccc4Cl)c2=O)CCC3)c1

- IC50 [1]: 500 nM
SMILES: CCOc1cc([C@H](CC(=O)O)NC(=O)Nc2c(O)c3c(n(Cc4c(C)cccc4Cl)c2=O)CCC3)c(Cl)c(OCC)c1Cl

- IC50 (Table 6, 30 minutes at 37° C.): 7 nM
SMILES: CCOc1cccc(Cl)c1Cn1ccc(O)c(NC(=O)N[C@@H](CC(=O)O)c2ccc(C)cc2)c1=O
